From patent US9927437B2, “Treating neurodegenerative disease” (THE BRIGHAM AND WOMEN'S HOSPITAL, INC., priority 2013, dated 2018)

Tests used:
[1] = test system: microglia and CNS-infiltrating monocytes; test: mRNA expression in microglia and CNS-infiltrating monocytes from EAE NOD mice; type: in vivo, mouse
Description: FIGS. 5a-m. B4GALT6 in astrocytes regulates the activation of microglia and CNS-infiltrating monocytes. (a) Heatmap depicting mRNA expression, as determined by nCounter Nanostring analysis, in microglia from naïve or EAE NOD mice treated with PDMP or vehicle. Representative data of three independent experiments. Statistical analysis by Student's t-test. (b) qPCR analysis of ccl5, il1b, opn, nos2, cd40, and H2-Aa gene expression relative to Gapdh. (c, d) Mean normalized expression of genes associated with M1- or M2-phenotype in microglia (Table 3) (c) and Ly6C^high monocytes (d). Statistical analysis by Student's t-test. (e-h) primary microglia were pre-treated with PDMP, LacCer, or vehicle, followed by activation with LPS/IFNγ for 6 h or left un-treated (control) as in (FIG. 3a). mRNA expression was determined by nCounter Nanostring analysis (e, g), and microglial viability was determined (f, h). Representative data of five independent experiments. (i) Mixed glia cultures were treated with mild trypsin/EDTA (T/E) to remove the astrocyte monolayer leaving only the microglia attached to the plate, or left un-treated. Cultures were pre-treated with PDMP, LacCer or vehicle, and activated with LPS/IFNγ for 6 h. Following activation, both cultures were washed, and incubated with mild T/E to remove the astrocytes; thus, leaving only the microglia (MG) attached to the plates. RNA was harvested from microglia treated in the absence [MG (pure)] or presence [MG (mixed)] of astrocytes and gene expression was analyzed by qPCR for the expression ccl2, ccl5 and nos2 relative to gapdh. Data present the relative effect of PDMP (left panel) or LacCer (right panel) pre-treatment on LPS/IFNγ-triggered gene induction, from five independent experiments. Statistical analysis by Student's t-test. (j) Mixed glia were pre-treated with indicated blocking antibodies or appropriate isotype controls (25 μg/ml) and LacCer […] or vehicle control, and then activated with LPS/IFNγ for 6 h. Microglia were isolated as in (i), and microglial-nos2 expression was determined by qRT relative to gapdh and presented as in (i). Representative data of three independent experiments. (k) ChIP analysis of the interaction of NF-κB, and IRF-1 with the csf2 promoter in primary cultured astrocytes. (l, m) Expression csf2 in astrocytes (l) and nos2 in microglial cells (m) isolated form the CNS of chronic EAE NOD mice, 10 days after the i.c.v. injection of astrocytes-specific shRNA lentivirus as in (FIG. 3j). Data from two independent experiments. For all data, means and s.e.m. are shown. *P<0.05, **P<0.01, ***P<0.001 and n.s. not significant.
Mononuclear cells were isolated from the CNS as previously described^50 with minor modifications. […]

astrocytes = test: mRNA expression in astrocytes isolated from EAE NOD mice (nCounter, qPCR); type: in vivo, mouse
Method: Mononuclear cells were isolated from the CNS as previously described^50 with minor modifications. Naïve and EAE mice were euthanatized, and then subjected to perfusion through the left ventricle with ice-cold sterile PBS. Brains and spinal cord were then removed, minced and enzymatically dissociated with 0.05% (w/v) collagenase type III (Worthington Biochemical), 0.5% Dispase II (Roche Applied Science), 40 μg/ml DNAse I, 20 mM HEPES in HBSS) for 30 min at 37 C to make a suspension of single cells. Enzymes were inactivated with 20 ml of Ca^2+/Mg^2+-free HBSS containing 2 mM EDTA and 20 mM HEPES. The digested tissue was triturated and passed through a […] cell strainer. Cells were centrifuged and resuspended in 30% isotonic Percoll (GE Healthcare) and 40 μg/ml DNAse I, underlined by 70% isotonic Percoll, and centrifuged at 1000×g at 4° C. for 25 min. Cells were collected from the 70%-30% interphase, and sorted by FACS Aria.
These purification procedures are based on previously described dissociation and purification protocols^50,51. Isolated CNS cells, were incubated with anti-Mouse CD16/CD32 for 15 min on ice to block the Fc receptors, and stained with fluorochrome-conjugated antibody for CD11b (M1/70), CD45(90), CD3 (145-2C11), CD4 (GK1.5), and Ly6C (HK1.4), and Biotion-conjugated GSL I—isolectin B4 (Vector labs), CD105 (N418), CD140a (APA5), CD11c (N418), F4/80 (BM8), O4 (O4, Miltenyi Biotec), and CD19 (eBio1D3), and un-conjugated antibodies recognizing mouse MOG (8-18C5, Millipore), O1 (O1), and Galactocerebroside (mGlaC, Millipore). All antibodies were from Ebioscience, unless otherwise mentioned (clone number, when relevant, in parentheses). Cells were washed and incubated PE-conjugated Streptavidin and R-Phycoerythrin AffiniPure F(ab′)2 fragment of Goat Anti-Mouse IgG+IgM (H+L) (Jackson ImmunoResearch laboratories) for 20 min at 4 C in the dark. Cells were washed, incubated with 7-AAD or Fixable Viability Dye eFluor® 450 (if cells were to be used for intracellular staining), for exclusion of dead cells (FIG. S3A), and sorted as following. Microglia were sorted as CD11b^+ cells with low CD45 expression and low Ly6C (CD11b+/CD45^low/Ly6C^low), while the inflammatory monocytes were considered as CD11b^+/Ly6C^high 52. T-cells were sorted as CD3^+CD4^+ cells. Astrocytes were isolated following the depletion of lymphocytes, microglia, monocytes (FIG. S3B), and oligodendrocytes, and lymphocytes (T-cells, B-cells, and NK cells) (FIG. S3C). […] We confirmed that we had isolated a relatively pure populations of astrocytes by qPCR for the astrocyte markers^44,51 gfap, aldh1l1 and aqp4, and found them to be exclusively expressed in the astrocyte fraction (in a similar expression pattern to that of GFP^+ astrocytes sorted from Tg(GFP-hGFAP) FVB transgenic mice^49) (FIG. S3E). We used an additional cohort of markers to explore for presence of immune cells [microglia/monocytes cells—itgam (CD11b), and emr1 (F4/80), dendritic cells—itgax (CD11c), NK cells—Klrb1c (Nk1.1), T-cells—cd3, and B-cells—cd19], oligodendrocytes (mog, mbp), and neurons (syt1, snap25) (FIG. S3F, G).
100-200 ng of total RNA was hybridized with reporter and capture probes for nCounter Gene Expression code sets (Mouse Inflammation Kit, or a custom made astrocyte-oriented probe set (Table S1)), according to manufacturer's instructions (NanoString Technologies). Data were normalized to spiked positive controls and housekeeping genes (nSolver Analysis system). Transcript counts less than the mean of the negative control transcripts plus 2 standard deviations for each sample were considered background.
Nanostring generated gene expression data were analyzed by use of the Expander 6.06 platform^53. Genes were clustered using the unbiased CLICK algorithm, and each cluster was further analyzed for enrichments in transcription factors binding sites (promoter analysis).

[2] = chronic NOD EAE, 10 days after i.c.v. shRNA lentivirus

| Compound | M1-associated genes in microglia and CNS-infiltrating monocytes ([1]; NOD EAE) | M2-associated genes in microglia and CNS-infiltrating monocytes ([1]; NOD EAE) | expression of genes associated with microglia activation ([1]; microglia from NOD EAE progressive phase) | expression of demyelination-associated genes in astrocytes (astrocytes; NOD EAE progressive phase) | expression of remyelination-associated genes in astrocytes (astrocytes; NOD EAE progressive phase) | expression of representative cluster 2 genes (ccl2, ccl5, cxcl10, il1b, nos2, opn, H2-Aa, vim) in astrocytes (astrocytes; NOD EAE progressive phase (day 100), qPCR) | irf1 and relB expression in astrocytes (astrocytes; NOD EAE, qPCR) | nos2 expression in microglia [1, 2] | b4galt6 and b4galt5 expression in astrocytes (astrocytes; NOD EAE, i.c.v. lentivirus at day 35, qPCR) | csf2 expression in astrocytes (astrocytes; [2]) |
| --- | --- | --- | --- | --- | --- | --- | --- | --- | --- | --- |
| CCCCCCCCCC(=O)N[C@H](CN1CCOCC1)[C@H](O)c1ccccc1 [PDMP, D-threo-1-phenyl-2-decanoylamino-3-morpholino-1-propanol] | significant down regulation | up-regulation | reduced the expression | significant reduction | increased expression | suppressive effects | subsequent suppression | – | – | – |
| shB4galt6: lentivirus-delivered shRNA against b4galt6 (TRCN0000334278; SEQ ID NO:3) (guide CGATGGACTGAACAATTTATTCTCGAGAATAAATTGTTCAGTCCACG) | – | – | – | – | – | – | – | decreased nos2 expression | astrocyte-specific knock-down | significant decrease |
